Assay results taken from patent publication US10544130B2, “Metallo-beta-lactamase inhibitors” (priority 2015, dated 2020).
Where two headings read alike, the source gives them in different places.

Key:
[1] = tested on: Pseudomonas aeruginosa PAO1 MB9798 (efflux+, IMP-1); settings: ratio MITC95 PA 9798/MITC95 PA 9799; imipenem at 2 μg/mL
Method in brief: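 Isogenic PAO1 pair (efflux+ MB9798, efflux− MB9799, both IMP-1) tested by microbroth MIC with fixed imipenem and/or ceftazidime, usually at CLSI breakpoint, plus fixed class A/C inhibitor against AmpC. MBL inhibitor titrated; concentration restoring susceptibility recorded and fold difference between strains taken as efflux extent.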

[2] = tested on: Serratia marcescens expressing IMP-1 (CL5741); type: cell-based; settings: with imipenem 1 μg/ml, 95% inhibition of bacterial growth
Protocol: Antibiotic Potentiation Activity: Determination of Synergistic Concentration
The bacterial strains tested included the clinical strains Escherichia coli expressing NDM-1 (CLB30005, CLB30016), Serratia marcescens expressing IMP-1 (CL5741), and Klebsiella pneumoniae expressing VIM-1 (IHMA599644). Inhibitor activity was measured in the presence and absence of imipenem in a 384-well microplate.
The clinical strains CLB30016, CL5741 and IHMA599644 were grown on trypticase soy agar containing 5% sheep's blood. The bacteria on agar plates were incubated at 35° C. with humidity overnight. The following day, individual colonies from each clinical strain were picked and resuspended in 5 ml saline to attain an OD600 of 0.14, 0.11, 0.15 and 0.13, for CLB30016, CL5741 and IHMA599644, respectively. These were further diluted 1:100 into 1.1× CAMHB and used to inoculate the test wells as described below.
Imipenem in 10 mM 3-(N-morpholino)propanesulfonic acid (MOPS, pH 7) was stored in single use aliquots at −80° C. […] On the day of the assay, 4 μl of antibiotic was added to 45 ul of bacteria followed by 1 μl of test compound and mixed by pipetting and with an orbital shaker. The concentration of antibiotic used in the assay was 1 μg/ml. Microplates were covered and incubated at 35° C. for 22 hours to 24 hours. At the end of the incubation, absorbance was determined using a spectrophotometer.

Row | Structure (SMILES) | Efflux ratio [1] | Serratia marcescens (IMP-1) MITC95 [2] | Serratia marcescens (IMP-1) MITC95 ([2]; CL5741)
1 | Nc1nc2c(-c3ccc(S(=O)(=O)NC[C@@H]4CCNC4)c(S(N)(=O)=O)c3-c3nn[nH]n3)cccc2[nH]1 [Example 263, (R)-4-(2-amino-1H-benzo[d]imidazol-4-yl)-N1-(pyrrolidin-3-ylmethyl)-3-(2H-tetrazol-5-yl)benzene-1,2-disulfonamide] | 1.00 | 0.7813 µM | –
2 | NCCNS(=O)(=O)c1ccc(-c2cccc3[nH]c([C@H](N)CO)nc23)c(-c2nn[nH]n2)c1S(N)(=O)=O [Example 330, (S)-4-(2-(1-amino-2-hydroxyethyl)-1H-benzo[d]imidazol-4-yl)-N1-(2-aminoethyl)-3-(2H-tetrazol-5-yl)benzene-1,2-disulfonamide] | 1.00 | 1.563 µM | –
3 | NCCNS(=O)(=O)c1ccc(-c2cccc3ccc(N)nc23)c(-c2nn[nH]n2)c1S(N)(=O)=O [Example 355, N1-(2-aminoethyl)-4-(2-aminoquinolin-8-yl)-3-(2H-tetrazol-5-yl)benzene-1,2-disulfonamide] | 1.00 | 0.7813 µM | –
4 | NCCCNS(=O)(=O)c1ccc(-c2cc(F)cc3[nH]c(N)nc23)c(-c2nn[nH]n2)c1S(N)(=O)=O [Example 402, 4-(2-amino-6-fluoro-1H-benzo[d]imidazol-4-yl)-N^1-(3-aminopropyl)-3-(2H-tetrazol-5-yl)benzene-1,2-disulfonamide] | – | 0.7813 µM | –
5 | Nc1ccc(-c2ccc(S(=O)(=O)N[C@H]3CNC[C@H]3N)c(S(N)(=O)=O)c2-c2nn[nH]n2)cn1 [Example 413, 4-(6-aminopyridin-3-yl)-N^1-((3S,4R)-4-aminopyrrolidin-3-yl)-3-(2H-tetrazol-5-yl)benzene-1,2-disulfonamide] | – | 1.563 µM | –
6 | Cc1cc(-c2ccc(S(=O)(=O)NC[C@@H](O)CN)c(S(N)(=O)=O)c2-c2nn[nH]n2)cnc1N [Example 468, (S)-N1-(3-amino-2-hydroxypropyl)-4-(6-amino-5-methylpyridin-3-yl)-3-(2H-tetrazol-5-yl)benzene-1,2-disulfonamide] | – | 0.7813 µM | –
7 | CN1CC(NS(=O)(=O)c2ccc(-c3cccc4[nH]c(N)nc34)c(-c3nn[nH]n3)c2S(N)(=O)=O)C1 [Example 256, 4-(2-amino-1H-benzo[d]imidazol-4-yl)-N1-(1-methylazetidin-3-yl)-3-(2H-tetrazol-5-yl)benzene-1,2-disulfonamide] | 1.00 | 0.7813 µM | –
8 | CC[C@H](CN)NS(=O)(=O)c1ccc(-c2cccc3[nH]c(N)nc23)c(-c2nn[nH]n2)c1S(N)(=O)=O [Example 265, (R)-4-(2-amino-1H-benzo[d]imidazol-4-yl)-N1-(1-aminobutan-2-yl)-3-(2H-tetrazol-5-yl)benzene-1,2-disulfonamide] | 1.00 | 0.7813 µM | –
9 | N[C@@H]1CNC[C@@H]1NS(=O)(=O)c1ccc(-c2cccn3ccnc23)c(-c2nn[nH]n2)c1S(N)(=O)=O [Example 328, N1-((3S,4R)-4-aminopyrrolidin-3-yl)-4-(imidazo[1,2-a]pyridin-8-yl)-3-(2H-tetrazol-5-yl)benzene-1,2-disulfonamide] | 1.00 | 1.563 µM | –
10 | C[C@H](CN)NS(=O)(=O)c1ccc(-c2ccc(N)nc2)c(-c2nn[nH]n2)c1S(N)(=O)=O [Example 393, (R)—N^1-(1-aminopropan-2-yl)-4-(6-aminopyridin-3-yl)-3-(2H-tetrazol-5-yl)benzene-1,2-disulfonamide] | – | 1.042 µM | –
11 | C[C@@H](CN)NS(=O)(=O)c1ccc(-c2cc(F)cc3[nH]c(N)nc23)c(-c2nn[nH]n2)c1S(N)(=O)=O [Example 397, (S)-4-(2-amino-6-fluoro-1H-benzo[d]imidazol-4-yl)-N^1-(1-aminopropan-2-yl)-3-(2H-tetrazol-5-yl)benzene-1,2-disulfonamide] | – | 0.7813 µM | –
12 | NCCNS(=O)(=O)c1ccc(-c2ccnc(CN)c2)c(-c2nn[nH]n2)c1S(N)(=O)=O [Example 461, N1-(2-Aminoethyl)-4-(2-(aminomethyl)pyridin-4-yl)-3-(2H-tetrazol-5-yl)benzene-1,2-disulfonamide] | – | 3.125 µM | –
13 | NC[C@@H](N)CNS(=O)(=O)c1ccc(-c2ccc(N)nc2)c(-c2nn[nH]n2)c1S(N)(=O)=O [Example 416, (R)-4-(6-aminopyridin-3-yl)-N^1-(2,3-diaminopropyl)-3-(2H-tetrazol-5-yl)benzene-1,2-disulfonamide] | – | 1.563 µM | –
14 | Nc1ccc(-c2ccc(S(=O)(=O)N[C@H]3CCCNC3)c(S(N)(=O)=O)c2-c2nn[nH]n2)cn1 [Example 494, (S)-4-(6-aminopyridin-3-yl)-N1-(piperidin-3-yl)-3-(2H-tetrazol-5-yl)benzene-1,2-disulfonamide] | – | – | 1.563 µM
15 | C[C@H](N)CNS(=O)(=O)c1ccc(-c2ccc(N)nc2)c(-c2nn[nH]n2)c1S(N)(=O)=O [Example 479, (S)—N1-(2-aminopropyl)-4-(6-aminopyridin-3-yl)-3-(2H-tetrazol-5-yl) benzene-1,2-disulfonamide] | – | 0.7813 µM | –
16 | NCCNS(=O)(=O)c1ccc(-c2ccc3sc(CN)nc3c2)c(-c2nn[nH]n2)c1S(N)(=O)=O [Example 476, N1-(2-aminoethyl)-4-(2-(aminomethyl)benzo[d]thiazol-5-yl)-3-(2H-tetrazol-5-yl)benzene-1,2-disulfonamide] | – | 0.7813 µM | –
17 | C[C@@H](N)CNS(=O)(=O)c1ccc(-c2ccc3nccn3c2)c(-c2nn[nH]n2)c1S(N)(=O)=O [Example 423, (R)-N^1-(2-aminopropyl)-4-(imidazo[1,2-a]pyridin-6-yl)-3-(2H-tetrazol-5-yl)benzene-1,2-disulfonamide] | – | 0.7813 µM | –
18 | NC[C@@H](CO)NS(=O)(=O)c1ccc(-c2ccc(N)nc2)c(-c2nn[nH]n2)c1S(N)(=O)=O [Example 409, (S)-N^1-(1-amino-3-hydroxypropan-2-yl)-4-(6-aminopyridin-3-yl)-3-(2H-tetrazol-5-yl)benzene-1,2-disulfonamide] | – | 1.563 µM | –
19 | Cl.Cl.NCCCNS(=O)(=O)c1ccc(-c2ccc(N)nc2)c(-c2nn[nH]n2)c1S(N)(=O)=O [Example 496, N1-(3-aminopropyl)-4-(6-aminopyridin-3-yl)-3-(2H-tetrazol-5-yl)benzene-1,2-disulfonamide hydrogen chloride] | – | – | 0.7813 µM
20 | Nc1nc2c(-c3ccc(S(=O)(=O)N[C@@H]4C[C@H]4N)c(S(N)(=O)=O)c3-c3nnn[nH]3)cccc2[nH]1 [Example 448, 4-(2-amino-1H-benzo[d]imidazol-4-yl)-N^1-((1R,2R)-2-aminocyclopropyl)-3-(1H-tetrazol-5-yl)benzene-1,2-disulfonamide] | – | 1.563 µM | –
21 | Nc1ccc(-c2ccc(S(=O)(=O)N[C@H]3CNC[C@H]3O)c(S(N)(=O)=O)c2-c2nn[nH]n2)cn1 [Example 410, 4-(6-aminopyridin-3-yl)-N^1-((3S,4R)-4-hydroxypyrrolidin-3-yl)-3-(2H-tetrazol-5-yl)benzene-1,2-disulfonamide] | – | 0.7813 µM | –
22 | Nc1ccc(-c2ccc(S(=O)(=O)NCC3(O)CNC3)c(S(N)(=O)=O)c2-c2nn[nH]n2)cn1 [Example 495, 4-(6-aminopyridin-3-yl)-N1-((3-hydroxyazetidin-3-yl)methyl)-3-(2H-tetrazol-5-yl)benzene-1,2-disulfonamide] | – | – | 0.7813 µM
23 | CN(CCN)S(=O)(=O)c1ccc(-c2cccc3[nH]c(N)nc23)c(-c2nn[nH]n2)c1S(N)(=O)=O [Example 449, 4-(2-amino-1H-benzo[d]imidazol-4-yl)-N^1-(2-aminoethyl)-N^1-methyl-3-(2H-tetrazol-5-yl)benzene-1,2-disulfonamide] | – | 1.563 µM | –
24 | NS(=O)(=O)c1c(S(=O)(=O)NC[C@H]2CNCCN2)ccc(-c2cccc3[nH]cnc23)c1-c1nn[nH]n1 [Example 481, (R)-4-(1H-benzo[d]imidazol-4-yl)-N1-(piperazin-2-ylmethyl)-3-(1H-tetrazol-5-yl)benzene-1,2-disulfonamide] | – | 1.563 µM | –
